Laboratory results from US12565495B2, “VMAT2 inhibitor and preparation method therefor and application thereof” (Luye Innomind Pharma Shijiazhuang Co., Ltd., priority 2019, dated 2026).

What was measured:
[1] = Liver microsome incubation test, rat; conditions: rat liver microsomes 0.5 mg/mL, 1 μM compound, NADPH, 37° C.
Protocol: (§1) Incubation: 100 μL of an incubation system included: liver microsomes (human, rat, mouse, monkey or dog) (0.5 mg/mL), sodium phosphate buffer (100 mM), and magnesium chloride (10 mM). […] After pre-incubation of the systems at 37° C. for 3 min, NADPH was added to a final concentration of 1 mM. The reaction was started. […] Each sample at each time point was processed parallelly in duplicate and a blank control group without coenzymes and a positive control group were provided.
(§2) A certain amount of internal standard was added to the sample following termination with acetonitrile. […] Relative remaining amount was taken as the ordinate and time as the abscissa.

[2] = Liver microsome incubation test, human; conditions: human liver microsomes 0.5 mg/mL, 1 μM compound, NADPH, 37° C.
Protocol: as §1, §2

[3] = Liver microsome incubation test, dog; format: in vitro ADME; conditions: dog liver microsomes 0.5 mg/mL, 1 μM compound, NADPH, 37° C.
Protocol: as §1, §2

[4] = Distribution test in SD rat brain tissue, gavage 12 μmol/kg (brain concentration, brain/plasma ratio); format: in vivo; conditions: SD rats, gavage 12 μmol/kg of compound 21 or VBZ, 2 h post-dose; compound 21 vs VBZ, metabolite compound 11 vs DHTBZ
Protocol: After the rats were sacrificed, the brain tissues were extracted, washed with normal saline and dried with filter paper. Cerebral vessels were stripped and the remaining brain tissues were weighed and stored at −20° C.

VMAT2 = VMAT2 (Rattus norvegicus (Rat), UniProt Q01827); test: Radioactivity detection of binding to VMAT2 in rats ([3H]DHTBZ binding assay, rat cerebral vesicle membrane); conditions: Table 25
Protocol: I. Radioactivity Detection of Activity of Compounds Binding to VMAT2 in Rats (Binding assay)
To determine the IC50 and Ki values of the binding of various compounds to VMAT2 in rats and to evaluate the affinity of compounds for VMAT2.
Male Wistar rat, weighing 175±25 g, was selected and the whole brain (without the cerebellum) of the rat was isolated surgically and placed into a pre-chilled sucrose solution (20 mL, 0.32 M) and homogenized by a Teflon pestle homogenizer. […] The supernatant was discarded and the precipitate obtained was placed in ice cold MilliQ water (18 mL, Millipore Corporation, Billerica, MA), incubated for 5 minutes and subjected to osmotic shock to shatter cell membrane. Then osmolarity was restored by addition of HEPES solution (25 mM, 2 mL) and potassium tartrate solution (100 mM, 2 mL). The resulting sample was centrifuged at 20,000 g for 20 min at 4° C. The supernatant was aspirated and MgSO4 solution (1 mM, 20 μL) was added. […] The precipitate was collected and resuspended in ice cold assay buffer (25 mM HEPES, 100 mM potassium tartrate, 5 mM MgSO4, 0.1 mM EDTA and 0.05 mM EGTA, pH 7.5) to obtain a vesicle suspension.
After completion of the incubation, the reaction solution was filtered (bacteria filter and collector, PerkinElmer Life and Analytical Sciences) to a filter plate and subsequently, the filter membrane was washed with 350 μL of ice-cold buffer (25 mM HEPES, 100 mM potassium tartrate, 5 mM MgSO4 and 10 mM NaCl, pH 7.5) five times. The filter plate was dried and had the bottom sealed. 40 μL of scintillation cocktail (MicroScint 20; PerkinElmer Life and Analytical Sciences) was added to each well. Radioactivity on the filter was determined by liquid scintillation spectrometry (TopCount NXT; PerkinElmer Life and Analytical Sciences).
Based on the radioactivity assay results above, IC50 and Ki were calculated. IC50 was calculated by a non-linear, least squares regression analysis using MathIQ™ (ID Business Solutions Ltd., UK). Ki values were calculated using the equation of Cheng and Prusoff (Cheng, Y., Prusoff, W. H., Biochem. Pharmacol. 22:3099-3108, 1973). Ki values were calculated in combination with the IC50 of the test compound and the historical KD in the radioactivity detection method of Eurofins Panlabs company.

[5] = Excipient compatibility test (purity after storage with excipients); format: physicochemical; conditions: for purity change after mixing with excipients: mixed with excipients 1:20, placed open at 60° C. for 5 days
Protocol: Then the mixture was placed open at 60° C. for 5 days.
Purity detection method: about 35 mg of the sample was weighed precisely and placed in a 25 ml measuring flask. 15 ml of acetonitrile was added to dissolve the sample by ultrasound. Water was used to dilute to a given mark and the mixture was shaken uniformly and used as sample solution to be tested. Determination was carried out based on high performance liquid chromatography, octadecyl silane bonded silica gel was used as the filler (Inerstil ODS-3V, 250 mm×4.6 mm, 5 μm); 10 mmol/L diammonium hydrogen phosphate solution (adjusting the pH value to 6.95±0.05)-acetonitrile (80:20) was used as mobile phase A, acetonitrile was used as mobile phase B, and gradient elution was carried out according to Table 39. The detection wavelength was 282 nm; the column temperature was 35° C.; and the flow rate was 1.0 ml/min. 10 μl of the sample solution to be tested was precisely measured and injected into the liquid chromatograph, and the chromatogram was recorded. Calculation was carried out by the peak area normalization method.

[6] = system: SD rat autonomous activity; test: SD rat autonomous activity model (total movement distance in open field, TopScan); format: in vivo; conditions: SD rats, 0 hr to 1 hr post-dose
Protocol: SD rat autonomous activity models were used in the study.
• 2.1 Test animals: 32 SD rats, SPF-grade, Male, 5-7 weeks old, weighing: 200-220 g, pre-accustomed for at least 1 week before the test.
Preparation method: An appropriate amount of the medicament was weighed and dissolved with a small amount of DMSO (not more than 1% of the total volume). Then, 20% Solutol was added to obtain the desired medicament concentration and the final concentration of DMSO was <4%.
The rats were put into the detection box, pre-accustomed for 10 min and fasted. Animal grouping and dosing information were detailed in Table 35.
On the day of the test, the animals were accustomed for at least 1 hr in the test room. Rats in each group were given a vehicle or corresponding medicaments, respectively according to the doses in Table 35 in one single gavage and then put into the activity room. […] Rats of a same group should not be put in one same room among the eight activity rooms, and there was at least one rat from the control group in each round of test to prevent mutual interference. At the end of each round of test, the feces were swept out and the activity rooms were cleaned to avoid the influence of irrelevant interfering factors (odor, etc.) on the exercise activities of the rats.
The total movement distances of rats from 2 hr to 3 hr post-dose were recorded and analyzed by using a TopScan monitoring system and the reduction rate (RR) of the total movement distance was calculated, wherein RR=(Control group movement distance-Administration group movement distance)/Control group movement distance*100%.
Test data were expressed as mean±standard error of the mean (MEAN±SEM). Difference between various groups at each time point was compared by using PASW Statistics 18.0 software with one-way analysis of variance (ANOVA).
Animal grouping and dosing information were detailed in […].

[7] = Pharmacokinetic test in SD rats, gavage 10 μmol/kg (plasma concentration-time curves); format: in vivo; conditions: male SD rats, FIG. 9
Protocol: Method of Pharmacokinetic Test in SD Rats:
The dosage of administration was 10 μmol/kg. At 0.25, 0.5, 1, 2, 3, 4, 6, 8 and 12 h post-dose, blood samples (about 0.2 mL/time point/rat) were collected to heparinized tubes.

[8] = Pharmacokinetic / bioavailability test in SD rats (gavage 5 μmol/kg, intravenous 2 μmol/kg); conditions: male, rat, plasma, 2 umol/kg
Protocol: At each corresponding time point post-dose, blood samples (about 1 ml/time point/rat) were collected to heparinized tubes. Within half an hour after collection, the samples were centrifuged to separate the plasma, which was transferred to 1.5 ml EP tubes and stored at −20° C. for detection.
Method for precipitating proteins was used for the pretreatment of the samples: protein precipitation was carried out in 25 μL of plasma by using 200 μL of acetonitrile containing internal standard. After high-speed centrifugation, the supernatant was diluted with water (1:1 (V/V)) and injected for analysis.

[9] = 11-P4S crystal forms A/D/E suspension competition test; format: physicochemical; conditions: suspension in IPA / IPAc, room temperature to 50° C., 17 hours
Protocol: Then XRPD was carried out on the solid.

VMAT2, sequence (Q01827 whole entry): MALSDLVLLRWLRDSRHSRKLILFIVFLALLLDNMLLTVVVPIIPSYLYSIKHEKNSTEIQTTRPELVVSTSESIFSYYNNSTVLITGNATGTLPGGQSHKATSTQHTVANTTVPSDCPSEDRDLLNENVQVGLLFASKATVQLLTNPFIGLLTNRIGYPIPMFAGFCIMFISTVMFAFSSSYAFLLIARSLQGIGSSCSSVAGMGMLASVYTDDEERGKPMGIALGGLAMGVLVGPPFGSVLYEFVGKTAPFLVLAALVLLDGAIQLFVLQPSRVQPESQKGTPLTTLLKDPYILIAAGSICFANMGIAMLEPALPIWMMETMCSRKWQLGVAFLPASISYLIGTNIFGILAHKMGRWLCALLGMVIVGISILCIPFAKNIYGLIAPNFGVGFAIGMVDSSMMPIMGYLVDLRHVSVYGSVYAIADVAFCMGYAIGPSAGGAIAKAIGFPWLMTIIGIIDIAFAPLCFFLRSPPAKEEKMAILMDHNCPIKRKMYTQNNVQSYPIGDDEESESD

COc1cc2c(cc1OCCCF)CCN1CC(CC(C)C)C(O)CC21 (centres unmarked) [Comparative Example 44, reference compound]
Elimination half-life (t1/2) in liver microsomes [1]: ~ (the data showed that the metabolism was stable and the rate of the original compound left was greater than 80% after an incubation of 60 min.)

COc1cc2c(cc1OCC(F)F)CCN1CC(CC(C)C)C(O)CC21 (centres unmarked) [Compound 12]
Elimination half-life (t1/2) in liver microsomes [2]: ~ (the data showed that the metabolism was stable and the rate of the original compound left was greater than 80% after an incubation of 60 min.)
Elimination half-life (t1/2) in liver microsomes [3]: ~ (the data showed that the metabolism was stable and the rate of the original compound left was greater than 80% after an incubation of 60 min.)
Elimination half-life (t1/2) in liver microsomes [1]: ~ (the data showed that the metabolism was stable and the rate of the original compound left was greater than 80% after an incubation of 60 min.)

COc1cc2c(cc1OCC(F)(F)F)CCN1CC(CC(C)C)C(OC(=O)[C@@H](N)C(C)C)CC21 (some centres unmarked) [Compound 21]
concentration in brain tissue compared to VBZ and DHTBZ [4]: significantly higher

CCCOc1cc2c(cc1OC)C1CC(O)C(CC(C)C)CN1CC2 (centres unmarked) [Compound 20]
IC50 (VMAT2): 4.9 nM

COc1cc2c(cc1OCCCC(F)(F)F)CCN1CC(CC(C)C)C(O)CC21 (centres unmarked) [Compound 13]
Elimination half-life (t1/2) in liver microsomes [3]: ~ (the data showed that the metabolism was stable and the rate of the original compound left was greater than 80% after an incubation of 60 min.)
Elimination half-life (t1/2) in liver microsomes [1]: ~ (the data showed that the metabolism was stable and the rate of the original compound left was greater than 80% after an incubation of 60 min.)

CCOc1cc2c(cc1OC)C1CC(O)C(CC(C)C)CN1CC2 (centres unmarked) [Compound 16]
IC50 (VMAT2): 12.9 nM
Elimination half-life (t1/2) in liver microsomes [1]: ~ (the data showed that the metabolism was stable and the rate of the original compound left was greater than 80% after an incubation of 60 min.)

CCCOc1cc2c(cc1OCC)CCN1CC(CC(C)C)C(O)CC21 (centres unmarked) [Comparative Example 41, reference compound]
IC50 (VMAT2): 280 nM

COc1cc2c(cc1OCC(F)(F)F)CCN1C[C@@H](CC(C)C)[C@H](O)C[C@H]21 [Compound 11-P4]
purity change after mixing with excipients [5]: purity dropped obviously
movement distance (rat autonomous activity) ([6]; 1.25 μmol/kg): 9313±1213 mm
movement distance (rat autonomous activity) ([6]; 2.5 μmol/kg): 5959±1615 mm
movement distance (rat autonomous activity) ([6]; 5.0 μmol/kg): 1216±429.9 mm
movement distance (rat autonomous activity) ([6]; 10.0 μmol/kg): 1355±524.1 mm

COc1cc2c(cc1OCC(F)(F)F)CCN1CC(CC(C)C)C(O)CC21 (centres unmarked) [Compound 11]
Elimination half-life (t1/2) in liver microsomes [3]: ~ (the data showed that the metabolism was stable and the rate of the original compound left was greater than 80% after an incubation of 60 min.)
exposure compared to Comparative Example 44 compound and DHTBZ [7]: higher exposure
concentration in brain tissue compared to VBZ and DHTBZ [4]: significantly higher
Elimination half-life (t1/2) in liver microsomes [1]: ~ (the data showed that the metabolism was stable and the rate of the original compound left was greater than 80% after an incubation of 60 min.)

COc1cc2c(cc1OC)[C@H]1C[C@@H](OC(=O)[C@@H](N)C(C)C)[C@H](CC(C)C)CN1CC2 [VBZ, valbenazine]
half-life [8]: 1.67 h

COc1cc2c(cc1OCC(F)(F)F)CCN1C[C@@H](CC(C)C)[C@H](O)C[C@H]21.Cc1ccc(S(=O)(=O)O)cc1 [crystal form A of 11-P4S]
purity ([5]; API alone, 0 d): 99.70%
purity ([5]; API alone, high temperature (60° C.), open, 5 d): 99.69%
purity ([5]; mixed with MCC 1:20, high temperature (60° C.), open, 5 d): 99.26%
purity change after mixing with excipients [5]: no obvious change
purity ([5]; mixed with magnesium stearate 1:20, high temperature (60° C.), open, 5 d): 99.68%
purity ([5]; mixed with talc powder 1:20, high temperature (60° C.), open, 5 d): 99.68%
thermodynamic stability of crystal form [9]: most thermodynamically stable crystal form

COCCCOc1cc2c(cc1OC)C1CC(O)C(CC(C)C)CN1CC2 (centres unmarked) [Compound 17]
IC50 (VMAT2): 58 nM
